Results reported in ChEMBL document CHEMBL4049399, “Novel pyrrolopyrimidines as Mps1/TTK kinase inhibitors for breast cancer” (Bioorg Med Chem, 2017).
≈ marks a conversion by molar mass, not a printed value. Calls of active or inactive are those of the source. The rule behind the calls is not given here.

Tests used:
CAL-51 [1] = test: Antiproliferative activity against human CAL51 cells assessed as reduction in cell viability after 5 to 7 days by CellTiter 96 aqueous solution assay; assay type: functional, cell-based
HCC1937 = test: Antiproliferative activity against human HCC1937 cells assessed as reduction in cell viability after 5 to 7 days by CellTiter 96 aqueous solution assay; assay type: functional, cell-based
BT-20 = test: Antiproliferative activity against human BT20 cells assessed as reduction in cell viability after 5 to 7 days by CellTiter 96 aqueous solution assay; assay type: functional, cell-based
BT-549 = test: Antiproliferative activity against human BT549 cells assessed as reduction in cell viability after 5 to 7 days by CellTiter 96 aqueous solution assay; assay type: functional, cell-based
MDA-MB-436 = test: Antiproliferative activity against human MDA-MB-436 cells assessed as reduction in cell viability after 5 to 7 days by CellTiter 96 aqueous solution assay; assay type: functional, cell-based
MDA-MB-468 = test: Antiproliferative activity against human MDA-MB-468 cells assessed as reduction in cell viability after 5 to 7 days by CellTiter 96 aqueous solution assay; assay type: functional, cell-based
Hs-578T = test: Antiproliferative activity against human Hs578T cells assessed as reduction in cell viability after 5 to 7 days by CellTiter 96 aqueous solution assay; assay type: functional, cell-based
MDA-MB-231 = test: Antiproliferative activity against human MDA-MB-231 cells assessed as reduction in cell viability after 5 to 7 days by CellTiter 96 aqueous solution assay; assay type: functional, cell-based
CAMA-1 = test: Antiproliferative activity against human CAMA1 cells assessed as reduction in cell viability after 5 to 7 days by CellTiter 96 aqueous solution assay; assay type: functional, cell-based
SK-BR-3 = test: Antiproliferative activity against human SK-BR-3 cells assessed as reduction in cell viability after 5 to 7 days by CellTiter 96 aqueous solution assay; assay type: functional, cell-based
AU565 = test: Antiproliferative activity against human AU565 cells assessed as reduction in cell viability after 5 to 7 days by CellTiter 96 aqueous solution assay; assay type: functional, cell-based
T47D = test: Antiproliferative activity against human T47D cells assessed as reduction in cell viability after 5 to 7 days by CellTiter 96 aqueous solution assay; assay type: functional, cell-based
MDA-MB-453 = test: Antiproliferative activity against human MDA-MB-453 cells assessed as reduction in cell viability after 5 to 7 days by CellTiter 96 aqueous solution assay; assay type: functional, cell-based
MCF7 = test: Antiproliferative activity against human MCF7 cells assessed as reduction in cell viability after 5 to 7 days by CellTiter 96 aqueous solution assay; assay type: functional, cell-based
BT-474 = test: Antiproliferative activity against human BT474 cells assessed as reduction in cell viability after 5 to 7 days by CellTiter 96 aqueous solution assay; assay type: functional, cell-based
[2] = target: T1, Dual specificity protein kinase TTK (Homo sapiens) (UniProt P33981); test: Inhibition of Mps1/TTK in human CAL51 cells assessed as reduction in centriole assembly during S-phase by measuring increase in BrdU positive cells with two centrioles incubated for 24 hrs followed by BrdU incorporation during last 4 hrs of incubation; assay type: cell-based
T1 sequence (whole entry): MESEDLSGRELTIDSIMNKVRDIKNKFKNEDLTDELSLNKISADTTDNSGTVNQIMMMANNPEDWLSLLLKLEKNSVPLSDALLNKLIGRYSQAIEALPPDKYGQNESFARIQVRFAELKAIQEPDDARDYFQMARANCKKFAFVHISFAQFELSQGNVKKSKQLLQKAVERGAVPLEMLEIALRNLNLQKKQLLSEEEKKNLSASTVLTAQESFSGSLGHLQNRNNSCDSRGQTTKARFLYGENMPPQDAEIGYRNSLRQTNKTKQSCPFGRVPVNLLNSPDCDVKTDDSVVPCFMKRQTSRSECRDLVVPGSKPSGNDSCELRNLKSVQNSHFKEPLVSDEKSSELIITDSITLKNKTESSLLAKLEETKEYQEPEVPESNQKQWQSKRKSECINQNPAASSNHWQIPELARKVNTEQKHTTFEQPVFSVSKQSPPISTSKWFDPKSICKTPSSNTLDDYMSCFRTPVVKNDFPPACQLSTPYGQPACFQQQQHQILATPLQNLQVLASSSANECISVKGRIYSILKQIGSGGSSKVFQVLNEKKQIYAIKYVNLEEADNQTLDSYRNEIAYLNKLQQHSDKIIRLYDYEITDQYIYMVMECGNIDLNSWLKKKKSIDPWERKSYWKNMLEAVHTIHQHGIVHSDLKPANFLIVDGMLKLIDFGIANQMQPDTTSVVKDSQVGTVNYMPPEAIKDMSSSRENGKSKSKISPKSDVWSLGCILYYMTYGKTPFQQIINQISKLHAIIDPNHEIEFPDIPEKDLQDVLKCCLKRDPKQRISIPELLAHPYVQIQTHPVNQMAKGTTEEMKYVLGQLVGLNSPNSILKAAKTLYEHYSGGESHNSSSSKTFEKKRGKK

[3] = target: T1, Dual specificity protein kinase TTK (Homo sapiens); test: Inhibition of Mps1/TTK in human CAL51 cells assessed as reduction in centrosome amplification during S-phase by measuring decrease in cells with more than four centrioles incubated for 24 hrs followed by BrdU incorporation during last 4 hrs of incubation; assay type: cell-based
[4] = target: T1, Dual specificity protein kinase TTK (Homo sapiens); test: Inhibition of Mps1/TTK in human CAL51 cells assessed as spindle assembly checkpoint arrest in response to nocodazole by measuring decrease in cyclin B level up to 10 uM by immunoblotting method; assay type: cell-based
[5] = target: T1, Dual specificity protein kinase TTK (Homo sapiens); test: Inhibition of Mps1/TTK in human MDA-MB-468 cells assessed as cell cycle arrest at mitotic stage by measuring decrease in spindle assembly checkpoint arrest in response to nocodazole by DAPI/Hoechst staining based assay
[6] = target: Tyrosine-protein kinase SYK (Homo sapiens, UniProt P43405); test: Inhibition of human SYK using poly[Glu:Tyr] (4:1) as substrate in presence of [gamma-32P]ATP
[7] = target: Non-receptor tyrosine-protein kinase TYK2 (Homo sapiens, UniProt P29597); test: Inhibition of human TYK2 using KKSRGDYMTMQIG as substrate in presence of [gamma-32P]ATP
Sequence of Non-receptor tyrosine-protein kinase TYK2 (P29597 whole entry, canonical isoform): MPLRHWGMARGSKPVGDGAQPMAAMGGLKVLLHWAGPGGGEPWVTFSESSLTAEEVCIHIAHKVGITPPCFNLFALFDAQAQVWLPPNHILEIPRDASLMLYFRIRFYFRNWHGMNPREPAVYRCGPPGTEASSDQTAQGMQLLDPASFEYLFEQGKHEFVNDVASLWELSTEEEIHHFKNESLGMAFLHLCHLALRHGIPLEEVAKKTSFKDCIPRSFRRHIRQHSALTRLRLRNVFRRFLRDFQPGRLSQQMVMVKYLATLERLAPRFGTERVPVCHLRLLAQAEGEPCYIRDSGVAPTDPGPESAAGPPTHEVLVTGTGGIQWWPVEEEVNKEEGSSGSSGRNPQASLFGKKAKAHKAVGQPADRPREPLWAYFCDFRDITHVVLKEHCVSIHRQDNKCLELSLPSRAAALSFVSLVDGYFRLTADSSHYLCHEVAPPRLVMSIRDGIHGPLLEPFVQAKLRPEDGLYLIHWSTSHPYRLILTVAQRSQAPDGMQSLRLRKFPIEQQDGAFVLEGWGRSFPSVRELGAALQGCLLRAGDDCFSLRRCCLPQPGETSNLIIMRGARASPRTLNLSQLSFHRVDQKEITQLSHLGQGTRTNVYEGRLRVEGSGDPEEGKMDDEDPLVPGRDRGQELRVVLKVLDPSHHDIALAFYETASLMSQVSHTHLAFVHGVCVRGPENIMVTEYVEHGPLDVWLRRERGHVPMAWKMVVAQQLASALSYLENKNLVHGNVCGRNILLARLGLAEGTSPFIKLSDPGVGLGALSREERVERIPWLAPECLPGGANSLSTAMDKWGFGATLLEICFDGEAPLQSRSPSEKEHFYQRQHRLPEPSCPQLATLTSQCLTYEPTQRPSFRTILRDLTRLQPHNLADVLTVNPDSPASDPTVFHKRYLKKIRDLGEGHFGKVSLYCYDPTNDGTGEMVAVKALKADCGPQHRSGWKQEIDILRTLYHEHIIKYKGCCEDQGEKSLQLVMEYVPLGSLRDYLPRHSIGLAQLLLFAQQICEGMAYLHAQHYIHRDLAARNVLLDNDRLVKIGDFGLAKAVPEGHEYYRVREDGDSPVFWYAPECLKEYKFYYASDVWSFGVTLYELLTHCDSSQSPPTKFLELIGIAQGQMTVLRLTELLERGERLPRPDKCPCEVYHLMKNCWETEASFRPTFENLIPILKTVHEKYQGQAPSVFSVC

[8] = target: Phosphatidylinositol 4,5-bisphosphate 3-kinase catalytic subunit beta isoform (Homo sapiens, UniProt P42338); test: Inhibition of PI3Kbeta (unknown origin)
Sequence of Phosphatidylinositol 4,5-bisphosphate 3-kinase catalytic subunit beta isoform (P42338 whole entry, canonical isoform): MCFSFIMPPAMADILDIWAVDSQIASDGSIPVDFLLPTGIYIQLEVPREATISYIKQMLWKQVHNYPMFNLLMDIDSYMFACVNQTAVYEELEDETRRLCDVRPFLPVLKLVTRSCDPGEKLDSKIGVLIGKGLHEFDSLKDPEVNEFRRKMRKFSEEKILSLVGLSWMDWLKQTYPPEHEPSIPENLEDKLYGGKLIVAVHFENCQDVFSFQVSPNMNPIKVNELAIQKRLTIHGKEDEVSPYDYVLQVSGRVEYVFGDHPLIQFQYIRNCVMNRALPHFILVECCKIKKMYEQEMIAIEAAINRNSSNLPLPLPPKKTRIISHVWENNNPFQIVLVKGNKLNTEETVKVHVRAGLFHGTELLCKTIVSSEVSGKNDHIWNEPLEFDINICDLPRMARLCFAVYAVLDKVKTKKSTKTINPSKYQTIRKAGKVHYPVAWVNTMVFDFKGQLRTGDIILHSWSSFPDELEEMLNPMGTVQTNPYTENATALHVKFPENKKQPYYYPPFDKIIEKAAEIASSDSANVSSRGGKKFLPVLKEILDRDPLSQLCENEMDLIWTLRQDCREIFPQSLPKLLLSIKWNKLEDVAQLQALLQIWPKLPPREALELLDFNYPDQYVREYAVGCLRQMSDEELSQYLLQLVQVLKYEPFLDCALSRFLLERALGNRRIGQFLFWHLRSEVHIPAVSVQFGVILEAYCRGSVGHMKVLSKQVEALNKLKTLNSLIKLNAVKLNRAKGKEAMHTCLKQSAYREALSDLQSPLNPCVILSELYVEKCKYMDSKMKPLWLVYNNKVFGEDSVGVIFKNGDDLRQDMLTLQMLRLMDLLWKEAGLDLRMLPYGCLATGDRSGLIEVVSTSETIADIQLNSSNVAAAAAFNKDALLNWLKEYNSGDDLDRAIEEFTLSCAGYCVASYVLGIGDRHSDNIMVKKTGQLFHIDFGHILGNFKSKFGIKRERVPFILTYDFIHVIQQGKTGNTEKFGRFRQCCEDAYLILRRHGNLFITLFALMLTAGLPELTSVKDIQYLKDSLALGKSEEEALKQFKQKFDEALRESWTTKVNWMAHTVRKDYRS

CAL-51 [9] = test: Cytotoxicity against human CAL51 cells assessed as reduction in cell viability at 25 uM after 24 hrs by BrdU incorporation assay relative to control; assay type: functional
[10] = Solubility of the compound in DMSO by absorption spectrometric method; assay type: physicochemical
[11] = Solubility of the compound in 10:5:10:75 DMSO/Tween80/PEG400/saline by absorption spectrometric method; assay type: physicochemical
[12] = Systemic clearance in ICR mouse at 20 mg/kg, iv by LC-MS/MS analysis; assay type: ADME, organism-based; conditions: in vivo
[13] = Elimination half-life in ICR mouse at 20 mg/kg, iv by LC-MS/MS analysis; assay type: ADME, organism-based; conditions: in vivo, read-out: beta t1/2 (converted)
[14] = AUC in ICR mouse at 50 mg/kg, ip by LC-MS/MS analysis; assay type: ADME, organism-based; conditions: in vivo
CAL-51 [15] = test: Antitumor activity against human CAL51 cells xenografted in athymic nude mouse assessed as reduction in tumor growth at 10 mg/kg, ip administered once daily measured after 3 to 7 weeks; assay type: functional, organism-based
CAL-51 [16] = test: Antitumor activity against human CAL51 cells xenografted in athymic nude mouse assessed as reduction in tumor weight at 10 mg/kg, ip administered once daily measured after 7 weeks; assay type: functional, organism-based
Mus musculus [17] = test: Toxicity in athymic nude mouse assessed as body weight at 10 mg/kg, ip measured immediately (reference value: 20 to 26 g); assay type: organism-based; conditions: in vivo
Mus musculus [18] = test: Toxicity in athymic nude mouse assessed as body weight at 10 mg/kg, ip administered once daily for 7 weeks measured at post last dose (reference value: 20 to 26 g); assay type: organism-based; conditions: in vivo, 1176 h
[19] = target: T1, Dual specificity protein kinase TTK (Homo sapiens); conditions: 1 uM
[20] = target: T1, Dual specificity protein kinase TTK (Homo sapiens); conditions: 1 uM; remark: listed apart in the source

Row | SMILES | IC50 (CAL-51 [1]) [µM] | IC50 (HCC1937) [µM] | IC50 (BT-20) [µM] | IC50 (BT-549) [µM] | IC50 (MDA-MB-436) [µM] | IC50 (MDA-MB-468) [µM] | IC50 (Hs-578T) [µM] | IC50 (MDA-MB-231) [µM] | IC50 (CAMA-1) [µM] | IC50 (SK-BR-3) [µM] | IC50 (AU565) [µM] | IC50 (T47D) [µM] | IC50 (MDA-MB-453) [µM] | IC50 (MCF7) [µM] | IC50 (BT-474) [µM] | inhibition [2] | inhibition [3] | inhibition [4] | further results
1 | COc1cc(N2CCC(O)CC2)ccc1Nc1nc(Nc2ccccc2S(=O)(=O)C(C)C)c2cc[nH]c2n1 | 0.23 | 0.73 | 0.35 | 0.81 | 0.9 | 0.19 | > 10 | > 10 | 0.36 | > 10 | > 10 | > 10 | 0.82 | 0.44 | > 10 | Dose-dependent effect | Dose-dependent effect | Active | inhibition [5]: Dose-dependent effect
2 | COc1cc(N2CCOCC2)ccc1Nc1nc(Nc2ccccc2S(=O)(=O)C(C)C)c2cc[nH]c2n1 | 0.3 | 1.1 | 1.71 | 1.3 | 1.23 | 0.32 | > 10 | > 10 | 0.65 | 0.47 | > 10 | > 10 | > 10 | 0.3 | 0.29 | – | – | – | –
3 | COc1cc(N2CCOCC2)ccc1Nc1nc(NC2CCCCC2)c2cc[nH]c2n1 | 0.55 | 1.02 | 0.37 | – | – | – | > 10 | > 10 | 0.6 | 0.4 | 0.95 | > 10 | – | > 10 | – | Dose-dependent effect | Dose-dependent effect | Active | IC50 [6]: 153 µM; IC50 [7]: 132 µM; IC50 [8]: 40.6 µM; Activity (CAL-51 [9]): 70%; solubility [10]: 53400 µg/mL (≈ 126 mM); solubility [11]: 5000 µg/mL (≈ 11.8 mM); clearance [12]: 292 mL/min/kg; half-life [13]: 2.28 h; AUC [14]: 8460 ng·h/mL; TGI (CAL-51 [15]): Active; Activity (CAL-51 [16]): Active; Activity (Mus musculus [17]): 24 g; Activity (Mus musculus [18]): 26 g; inhibition [19]: Active; inhibition [20]: Active
4 | COc1cc(N2CCC(O)CC2)ccc1Nc1cc(Nc2ccccc2S(=O)(=O)C(C)C)c2cc[nH]c2n1 | 2.92 | > 10 | > 10 | 1.73 | > 10 | 1.85 | > 10 | > 10 | > 10 | > 10 | > 10 | > 10 | > 10 | > 10 | > 10 | – | – | – | –
5 | COc1ccccc1Nc1nc(Nc2ccccc2S(=O)(=O)C(C)C)c2cc[nH]c2n1 | 1.26 | 0.84 | 0.06 | 2.19 | 5.23 | 1.57 | > 10 | 0.4 | 0.84 | 0.75 | > 10 | 0.33 | > 10 | 0.35 | 0.47 | – | – | – | –
